Consider ten sequences from US20230136600A1, “Method and device for screening antigen epitope polypeptide” (priority 2020, published 2023).

The subject of the experiment is Balb/c mice. The experiment in a line: Polypeptide chip-based vaccine immunogenicity scoring system. It counts as in vivo. The conditions noted are these: Embodiment III, polypeptide-KLH; for A1: difference between a highest median and a D 0 median (95 percentile) / A2: whether the 95 percentile of the last sampling is increased compared with the end point: Mix1-10; for Total single peptide: A*3 + B*2 + C*1; for A: 95 percentile grouping number score / B: Mouse performance score: total score = 5; for C1: #A timing-sequence response peptide fragment set / C2: #B vaccine specificity peptide fragment set / C3: Intersection of A and B / C4: Percentage of the intersection in set B / C: Timing-sequence response and specificity score: value of the whole mix. On the set-up: key to A2: whether the 95 percentile of the last sampling is increased compared with the end point: Y = rise; N = no rise. The protocol: Data distribution and characteristics thereof are analyzed based on a) and b), a polypeptide chip-based vaccine immunogenicity scoring system (referring to Table 7) is designed.
10 combinations are evaluated by the polypeptide chip-based vaccine immunogenicity scoring system. An evaluation method is consistent with that in Embodiment II. Evaluation results are show in the table below.
This embodiment is consistent with Embodiment II. Each combination is evaluated by the polypeptide chip-based vaccine immunogenicity scoring system. Evaluation results are show in the table below.

As for NVAKSEFDRDAA [SEQ ID NO:26], the “B1: D 0-D 14 95 percentile rise in the number of mice” value (from here on “B1: D 0-D 14 95 percentile rise”) was 3, the “B2: D 0-D 21 95 percentile rise in the number of mice” value (shortened to “B2: D 0-D 21 95 percentile rise”) was 3, the “B3: D 14-D 21 95 percentile rise in the number of mice” value (“B3: D 14-D 21 95 percentile rise” below) is on record as 1 and the “B4: D 21-D 28 95 percentile rise in the number of mice” value (shortened to “B4: D 21-D 28 95 percentile rise”) was 0. In addition, the “A1: difference between a highest median and a D 0 median (95 percentile)” value amounted to 0.06; the “A2: whether the 95 percentile of the last sampling is increased compared with the end point” value is given as “N”; the Total single peptide was 6.9; the “A: 95 percentile grouping number score” value was 1. The “B: Mouse performance score” value turned out to be 1.7; the “C1: #A timing-sequence response peptide fragment set” value turned out to be 352; the “C2: #B vaccine specificity peptide fragment set” value was determined as 541; the “C3: Intersection of A and B” value is recorded as 1. Besides, the “C4: Percentage of the intersection in set B” value (“C4: Percentage” for short) stood at 0.185; the “C: Timing-sequence response and specificity score” value worked out at 0.5.
Regarding EVFAQVKQIY (SARS-CoV-2) [SEQ ID NO:13], the “B1: D 0-D 14 95 percentile rise” value is reported as 3, the “B2: D 0-D 21 95 percentile rise” value was determined as 3, the “B3: D 14-D 21 95 percentile rise” value was 0 and the “B4: D 21-D 28 95 percentile rise” value came out at 2. In addition, the “A1: difference between a highest median and a D 0 median (95 percentile)” value worked out at 0.08; the “A2: whether the 95 percentile of the last sampling is increased compared with the end point” value was “Y”; the Total single peptide worked out at 14.8; the “A: 95 percentile grouping number score” value is on record as 3.5. Besides, the “B: Mouse performance score” value was found to be 1.9; the “C1: #A timing-sequence response peptide fragment set” value is 1212; the “C2: #B vaccine specificity peptide fragment set” value is listed as 389; the “C3: Intersection of A and B” value is given as 1. The “C4: Percentage” value is 0.257; the “C: Timing-sequence response and specificity score” value was found to be 0.5.
As for LPFNDGVYF (SARS-CoV-2) [SEQ ID NO:14], the “B1: D 0-D 14 95 percentile rise” value was 3, the “B2: D 0-D 21 95 percentile rise” value is listed as 2, the “B3: D 14-D 21 95 percentile rise” value is 2 and the “B4: D 21-D 28 95 percentile rise” value is listed as 3. Further, the “A1: difference between a highest median and a D 0 median (95 percentile)” value was determined as 0.09; the “A2: whether the 95 percentile of the last sampling is increased compared with the end point” value is “Y”; the Total single peptide was found to be 17.1; the “A: 95 percentile grouping number score” value was found to be 4. Also, the “B: Mouse performance score” value was 2.3; the “C1: #A timing-sequence response peptide fragment set” value turned out to be 133; the “C2: #B vaccine specificity peptide fragment set” value came to 431; the “C3: Intersection of A and B” value turned out to be 1. Also, the “C4: Percentage” value is 0.232; the “C: Timing-sequence response and specificity score” value was determined as 0.5.
As for ALDPLSETKCT (SARS-CoV-2) [SEQ ID NO:4], the “B1: D 0-D 14 95 percentile rise” value is recorded as 2, the “B2: D 0-D 21 95 percentile rise” value worked out at 3, the “B3: D 14-D 21 95 percentile rise” value is 2 and the “B4: D 21-D 28 95 percentile rise” value is given as 0. Moreover, the “A1: difference between a highest median and a D 0 median (95 percentile)” value was 0.15; the “A2: whether the 95 percentile of the last sampling is increased compared with the end point” value is “N”; the Total single peptide was found to be 17.7; the “A: 95 percentile grouping number score” value stood at 4.5. The “B: Mouse performance score” value is 1.6; the “C1: #A timing-sequence response peptide fragment set” value is given as 1494; the “C2: #B vaccine specificity peptide fragment set” value stood at 190; the “C3: Intersection of A and B” value came to 2. Besides, the “C4: Percentage” value was found to be 1.053; the “C: Timing-sequence response and specificity score” value came to 1.
For KRISNCVADY [SEQ ID NO:8], the “B1: D 0-D 14 95 percentile rise” value was determined as 2, the “B2: D 0-D 21 95 percentile rise” value was 3, the “B3: D 14-D 21 95 percentile rise” value is on record as 2 and the “B4: D 21-D 28 95 percentile rise” value is given as 1. Also, the “A1: difference between a highest median and a D 0 median (95 percentile)” value is reported as 0.03; the “A2: whether the 95 percentile of the last sampling is increased compared with the end point” value is “N”; the Total single peptide is on record as 7.1; the “A: 95 percentile grouping number score” value was found to be 1. For the same sequence, the “B: Mouse performance score” value is recorded as 1.8; the “C1: #A timing-sequence response peptide fragment set” value was 230; the “C2: #B vaccine specificity peptide fragment set” value amounted to 251; the “C3: Intersection of A and B” value is recorded as 1. Further, the “C4: Percentage” value is recorded as 0.398; the “C: Timing-sequence response and specificity score” value is recorded as 0.5.
Consider ETSNSFDVLKSE [SEQ ID NO:30], for which the “B1: D 0-D 14 95 percentile rise” value was found to be 2, the “B2: D 0-D 21 95 percentile rise” value is 2, the “B3: D 14-D 21 95 percentile rise” value was found to be 2 and the “B4: D 21-D 28 95 percentile rise” value was found to be 1. In addition, the “A1: difference between a highest median and a D 0 median (95 percentile)” value was determined as 0.02; the “A2: whether the 95 percentile of the last sampling is increased compared with the end point” value is listed as “N”; the Total single peptide was determined as 6.7; the “A: 95 percentile grouping number score” value amounted to 1. Also, the “B: Mouse performance score” value is 1.6; the “C1: #A timing-sequence response peptide fragment set” value is 230; the “C2: #B vaccine specificity peptide fragment set” value was determined as 251; the “C3: Intersection of A and B” value is reported as 1. The “C4: Percentage” value is 0.398; the “C: Timing-sequence response and specificity score” value was determined as 0.5.
Take YTNDKACPL (SARS-CoV-2) [SEQ ID NO:1]: the “B1: D 0-D 14 95 percentile rise” value was found to be 2, the “B2: D 0-D 21 95 percentile rise” value came to 2, the “B3: D 14-D 21 95 percentile rise” value stood at 1 and the “B4: D 21-D 28 95 percentile rise” value worked out at 1. The “A1: difference between a highest median and a D 0 median (95 percentile)” value amounted to 0.11; the “A2: whether the 95 percentile of the last sampling is increased compared with the end point” value was “Y”; the Total single peptide is 18.3; the “A: 95 percentile grouping number score” value came out at 5. For the same sequence, the “B: Mouse performance score” value was found to be 1.4; the “C1: #A timing-sequence response peptide fragment set” value was found to be 257; the “C2: #B vaccine specificity peptide fragment set” value was found to be 682; the “C3: Intersection of A and B” value turned out to be 3. For the same sequence, the “C4: Percentage” value stood at 0.440; the “C: Timing-sequence response and specificity score” value is recorded as 0.5.
As to YEGNSPFH [SEQ ID NO:18], the “B1: D 0-D 14 95 percentile rise” value came out at 3, the “B2: D 0-D 21 95 percentile rise” value was found to be 2, the “B3: D 14-D 21 95 percentile rise” value was 0 and the “B4: D 21-D 28 95 percentile rise” value was found to be 2. Further, the “A1: difference between a highest median and a D 0 median (95 percentile)” value was determined as 0.06; the “A2: whether the 95 percentile of the last sampling is increased compared with the end point” value was “Y”; the Total single peptide came out at 9.9; the “A: 95 percentile grouping number score” value was 2. Also, the “B: Mouse performance score” value came to 1.7; the “C1: #A timing-sequence response peptide fragment set” value was 1212; the “C2: #B vaccine specificity peptide fragment set” value came out at 389; the “C3: Intersection of A and B” value worked out at 1. In addition, the “C4: Percentage” value worked out at 0.257; the “C: Timing-sequence response and specificity score” value worked out at 0.5.
Take FHPLADNKF (SARS-CoV-2) [SEQ ID NO:17]: the “B1: D 0-D 14 95 percentile rise” value is listed as 3, the “B2: D 0-D 21 95 percentile rise” value came to 2, the “B3: D 14-D 21 95 percentile rise” value is on record as 0 and the “B4: D 21-D 28 95 percentile rise” value is on record as 2. In addition, the “A1: difference between a highest median and a D 0 median (95 percentile)” value was determined as 0.10; the “A2: whether the 95 percentile of the last sampling is increased compared with the end point” value is given as “Y”; the Total single peptide is 17.4; the “A: 95 percentile grouping number score” value came to 4.5. Further, the “B: Mouse performance score” value is on record as 1.7; the “C1: #A timing-sequence response peptide fragment set” value is 133; the “C2: #B vaccine specificity peptide fragment set” value turned out to be 431; the “C3: Intersection of A and B” value is 1. For the same sequence, the “C4: Percentage” value is 0.232; the “C: Timing-sequence response and specificity score” value worked out at 0.5.
For KEIDRLNEV [SEQ ID NO:12], the “B1: D 0-D 14 95 percentile rise” value was found to be 3, the “B2: D 0-D 21 95 percentile rise” value turned out to be 3, the “B3: D 14-D 21 95 percentile rise” value is 1 and the “B4: D 21-D 28 95 percentile rise” value came to 0. The “A1: difference between a highest median and a D 0 median (95 percentile)” value was 0.10; the “A2: whether the 95 percentile of the last sampling is increased compared with the end point” value is “N”; the Total single peptide turned out to be 15.9; the “A: 95 percentile grouping number score” value is 4. Moreover, the “B: Mouse performance score” value was 1.7; the “C1: #A timing-sequence response peptide fragment set” value was 257; the “C2: #B vaccine specificity peptide fragment set” value turned out to be 682; the “C3: Intersection of A and B” value is reported as 3. Also, the “C4: Percentage” value stood at 0.440; the “C: Timing-sequence response and specificity score” value stood at 0.5.
